# Target: T1, CRTH2 (Homo sapiens, UniProt Q9Y5Y4)
# T1 sequence (Q9Y5Y4 1-395): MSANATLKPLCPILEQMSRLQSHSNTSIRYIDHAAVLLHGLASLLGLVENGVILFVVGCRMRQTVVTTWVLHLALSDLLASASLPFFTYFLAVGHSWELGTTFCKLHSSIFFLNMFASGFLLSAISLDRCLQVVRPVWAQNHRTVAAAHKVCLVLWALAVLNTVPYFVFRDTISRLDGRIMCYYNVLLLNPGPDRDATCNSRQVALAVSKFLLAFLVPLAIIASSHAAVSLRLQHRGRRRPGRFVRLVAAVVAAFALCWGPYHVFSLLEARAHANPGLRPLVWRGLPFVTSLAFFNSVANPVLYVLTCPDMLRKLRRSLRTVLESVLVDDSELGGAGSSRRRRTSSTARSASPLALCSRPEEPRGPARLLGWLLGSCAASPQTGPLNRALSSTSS
# Assay: Radioligand binding Scintillation Proximity Assay ([3H]PGD2, hCRTH2-CHO cell membranes)
# Set-up: host or cells: CHO cells
# Conditions: 1.5 nM [3H]PGD2, hCRTH2-CHO cell membranes, SPA
# Protocol: Adherent CHO cells expressing hCRTH2 (Euroscreen, Belgium) were cultured in 225 cm^2 cell culture flasks (Corning, USA) in 30 ml of medium. After two rinses of phosphate buffered saline (PBS), cells were harvested in 10 ml of PBS containing 1 mM EDTA, centrifuged at 500×g for 5 min at 4° C. and frozen at −80° C. The pellet was re-suspended in 50 mM Tris-HCl, pH 7.4, 2 mM EDTA, 250 mM Sucrose, containing protease inhibitor cocktail tablets, (Complete EDTA-free, Roche, Germany) and incubated 30 min at 4° C. Cells were disrupted by nitrogen cavitation (Parr Instruments, USA) at 4° C. (800 p.s.i. for 30 min), and centrifuged at 500×g for 10 min at 4° C. Pellet containing nuclei and cellular debris was discarded and supernatant was centrifuged 60 min at 4° C. at 45000×g. Membrane pellet was re-suspended in storage buffer (10 mM HEPES/KOH pH 7.4, 1 mM EDTA, 250 mM sucrose, protease inhibitor cocktail tablets) using Dounce homogenization and frozen in liquid nitrogen, and stored at −80° C.
# The inhibitory activity can be investigated by a radioligand binding Scintillation Proximity Assay (SPA) (Sawyer et al., Br. J. Pharmocol 2002, 137, 1163-72). The SPA radioligand binding assay was performed at room temperature in binding buffer (10 mM HEPES/KOH pH 7.4, 10 mM MnCl2, with protease inhibitor cocktail tablets), containing 1.5 nM [^3H]PGD2 (Perkin Elmer), 10-50 μg/ml of hCRTH2-CHO cell membrane protein and 2 mg/ml of Wheat-germ agglutinin Sintillation Proximity Assay beads (RPNQ0001, GE-Healthcare) in a final volume of 100 μl in 96 well plates (Corning, USA). Non-specific binding was determined in the presence of 10 μM PGD2 (Cayman, USA). Competing Compounds of Formula (I) were diluted in dimethylsulphoxide so that the total volume of dimethylsulfoxide was kept constant at 1% dimethylsulphoxide (Me2SO). Serial dilutions of 100 μM to 100 pM were prepared and 10 μl each of the compounds of Formula (I) stock solutions were added to the binding assay reagents and incubated for 90 min with agitation at room temperature. Binding activity was determined by using a 1450 Micro-beta scintillation counter (Wallac, UK).
row,SMILES,IC50 [nM]
1,"N#Cc1ccc(F)c(C#Cc2cc(Cl)ccc2OCC(=O)O)c1 [Example 21, {4-chloro-2-[(5-cyano-2-fluorophenyl)ethynyl]phenoxy}acetic acid]",46
2,"Cc1ccc(S(=O)(=O)NCC(C)(C)C)cc1C#Cc1cc(Cl)ccc1OCC(=O)O [Example 113, {4-chloro-2-[(5-{[(2,2-dimethylpropyl)amino]sulfonyl}-2-methylphenyl)ethynyl]phenoxy}acetic acid]",2
3,"Cc1ccc(S(=O)(=O)Cc2ccccc2)cc1C#Cc1cc(C#N)ccc1OCC(=O)O [Example 93, (2-{[5-(benzylsulfonyl)-2-methylphenyl]ethynyl}-4-cyanophenoxy)acetic acid]",13
4,"Cc1ccc(S(=O)(=O)C(C)C)cc1C#Cc1cc(C#N)ccc1OCC(=O)O [Example 68, (4-cyano-2-{[5-(isopropylsulfonyl)-2-methylphenyl]ethynyl}phenoxy)acetic acid]",12
5,"O=C(O)COc1ccc(Cl)cc1C#Cc1ccccc1C(F)(F)F [Example 9, (4-chloro-2-{[2-(trifluoromethyl)phenyl]ethynyl}phenoxy)acetic acid]",30
6,"Cc1ccc(S(=O)(=O)CCc2ccccc2)cc1C#Cc1cc(C#N)ccc1OCC(=O)O [Example 96, [4-cyano-2-({2-methyl-5-[(2-phenylethyl)sulfonyl]phenyl}ethynyl)phenoxy]acetic acid]",7
7,"CNS(=O)(=O)c1ccc(C)c(C#Cc2cc(Cl)ccc2OCC(=O)O)c1 [Example 84, [4-chloro-2-({2-methyl-5-[(methylamino)sulfonyl]phenyl}ethynyl)phenoxy]acetic acid]",13
8,"Cc1cc(F)c(S(C)(=O)=O)cc1C#Cc1cc(Cl)ccc1OCC(=O)O [Example 97, (4-chloro-2-{[4-fluoro-2-methyl-5-(methylsulfonyl)phenyl]ethynyl}phenoxy)acetic acid]",8

# More lines, now with the values ahead:
row,IC50 [nM],SMILES
1,8,"Cc1ccc(S(=O)(=O)N(C)C2CCCC2)cc1C#Cc1cc(Cl)ccc1OCC(=O)O [Example 121, {4-chloro-2-[(5-{[cyclopentyl(methyl)amino]sulfonyl}-2-methylphenyl)ethynyl]phenoxy}acetic acid]"
2,28,"O=C(O)COc1ccc(Cl)cc1C#Cc1ccc(NC(=O)c2ccccc2)cc1 [Example 151, (2-{[4-(benzoylamino)phenyl]ethynyl}-4-chlorophenoxy)acetic acid]"
3,32,"CC1(O)c2ccc(C#Cc3cc(Cl)ccc3OCC(=O)O)cc2S(=O)(=O)C1(C)C (stereo not shown) [Example 160, {4-chloro-2-[(3-hydroxy-2,2,3-trimethyl-1,1-dioxido-2,3-dihydro-1-benzothien-6-yl)ethynyl]phenoxy}acetic acid]"
4,369,"Cc1ccc(S(=O)(=O)N(C)CCCN(C)C)cc1C#Cc1cc(Cl)ccc1OCC(=O)O [Example 119, {4-chloro-2-[(5-{[[3-(dimethylamino)propyl](methyl)amino]sulfonyl}-2-methylphenyl)ethynyl]phenoxy}acetic acid]"
5,43,"CCCN(CC)C(=O)c1ccc(C#Cc2cc(Cl)ccc2OCC(=O)O)cc1S(=O)(=O)C(C)C [Example 166, (4-chloro-2-{[4-{[ethyl(propyl)amino]carbonyl}-3-(isopropylsulfonyl)phenyl]ethynyl}phenoxy)acetic acid]"
6,4,"CS(=O)(=O)c1cc(C#Cc2cc(Cl)ccc2OCC(=O)O)ccc1-c1ccccc1Cl [Example 146, (4-chloro-2-{[2′-chloro-2-(methylsulfonyl)biphenyl-4-yl]ethynyl}phenoxy)acetic acid]"
7,15,"CCCS(=O)(=O)c1cccc(C#Cc2cc(-c3cccs3)ccc2OCC(=O)O)c1 [Example 134, [2-{[3-(propylsulfonyl)phenyl]ethynyl}-4-(2-thienyl)phenoxy]acetic acid]"
8,360,"CCCS(=O)(=O)c1cccc(C#Cc2cc(-c3c(C)nn(C)c3C)ccc2OCC(=O)O)c1 [Example 136, [2-{[3-(Propylsulfonyl)phenyl]ethynyl}-4-(1,3,5-trimethyl-1H-pyrazol-4-yl)phenoxy]acetic acid]"

# From patent publication US8273769B2, “Phenoxy acetic acid derivatives” (Merck Serono SA, priority 2009, dated 2012)
